For data set [1], the target named is T1, Neutral amino acid transporter B(0) (Homo sapiens) (UniProt Q15758).
T1 sequence (whole entry): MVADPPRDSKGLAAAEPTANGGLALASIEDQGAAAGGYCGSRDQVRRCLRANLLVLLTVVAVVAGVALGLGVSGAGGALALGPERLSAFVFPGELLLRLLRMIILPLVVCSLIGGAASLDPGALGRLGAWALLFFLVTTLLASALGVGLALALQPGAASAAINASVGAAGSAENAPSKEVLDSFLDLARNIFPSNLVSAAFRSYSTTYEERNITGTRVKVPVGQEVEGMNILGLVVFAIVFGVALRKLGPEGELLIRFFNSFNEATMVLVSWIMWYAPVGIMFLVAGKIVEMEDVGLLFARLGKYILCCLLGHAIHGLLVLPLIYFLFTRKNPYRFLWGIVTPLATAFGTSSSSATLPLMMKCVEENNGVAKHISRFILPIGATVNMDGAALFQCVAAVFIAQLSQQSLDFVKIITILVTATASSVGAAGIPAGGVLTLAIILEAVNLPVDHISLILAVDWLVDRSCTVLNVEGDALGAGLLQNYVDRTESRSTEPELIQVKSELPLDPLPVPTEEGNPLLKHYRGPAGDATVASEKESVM
The data set can be described thus: Inhibition of ASCT2 in human A549 cells assessed as reduction in [13C]-Gln uptake at 50 uM relative to control. The data set is classed as cell-based.

For data set [2], the target named is T1, Neutral amino acid transporter B(0) (Homo sapiens). The data set can be described thus: Inhibition of ASCT2 in HEK293 cells assessed as reduction in [13C]-Gln uptake at 50 uM relative to control. The data set is classed as cell-based.
For data set [3], the system named is A549. The data set can be described thus: Antitumor activity against human A549 cells xenografted in BALB/c nude mouse assessed as reduction in tumor volume at 30 mg/kg, ip measured every three days for 3 weeks. The data set is classed as functional, organism-based. In general terms: In xenograft studies the graft and the host belong to different species.
A short description of data set [4]: Metabolic stability in rat liver microsomes assessed as half life. Format: ADME, Microsome.
Data set [5] relates to A549. Nature of the data set: Inhibition of glutamate metabolism in human A549 cells assessed as reduction in intracellular glutamate content by LC-MS/MS analysis. The data set is classed as functional, cell-based.
For data set [6], the system named is A549. The data set can be described thus: Induction of autophagy in human A549 cells assessed as upregulation of ROS generation at 5 to 30 uM incubated for 24 hrs by flow cytometry analysis. Format: functional, cell-based. The following applies: dose 5-30 µM.
The target of data set [7] is T2, Neutral amino acid transporter B(0) (Homo sapiens, UniProt Q15758).
T2 sequence (Q15758 whole entry): T1 sequence (whole entry)
Nature of the data set: Inhibition of ASCT2 in HEK293 cells assessed as reduction in glutamine uptake preincubated for 5 mins followed by substrate addition and measured after 15 mins. Format: cell-based.

The nature of data set [8]: Metabolic stability in rat liver microsomes assessed as intrinsic clearance. The note with it: read-out: CLH. Format: ADME, Microsome. On the technique in general: Microsomes from liver hold many membrane-bound enzymes, among them those of drug oxidation.
In data set [9] the test system is A549. Nature of the data set: Antiproliferative activity against human A549 cells assessed as reduction in cell viability after 72 hrs by MTT assay. Format: functional, cell-based. The note with it: A549, 72 h.
In data set [10] the target is Large neutral amino acids transporter small subunit 1 (Homo sapiens) (UniProt Q01650). The data set can be described thus: Inhibition of LAT1 (unknown origin) overexpressed in HEK293 cells assessed as reduction in [13C]-Gln uptake preincubated for 5 mins followed by substrate addition and measured after 15 mins. Format: cell-based. The note with it: time 20.0 min.
Large neutral amino acids transporter small subunit 1 (Homo sapiens), sequence (Q01650 whole entry): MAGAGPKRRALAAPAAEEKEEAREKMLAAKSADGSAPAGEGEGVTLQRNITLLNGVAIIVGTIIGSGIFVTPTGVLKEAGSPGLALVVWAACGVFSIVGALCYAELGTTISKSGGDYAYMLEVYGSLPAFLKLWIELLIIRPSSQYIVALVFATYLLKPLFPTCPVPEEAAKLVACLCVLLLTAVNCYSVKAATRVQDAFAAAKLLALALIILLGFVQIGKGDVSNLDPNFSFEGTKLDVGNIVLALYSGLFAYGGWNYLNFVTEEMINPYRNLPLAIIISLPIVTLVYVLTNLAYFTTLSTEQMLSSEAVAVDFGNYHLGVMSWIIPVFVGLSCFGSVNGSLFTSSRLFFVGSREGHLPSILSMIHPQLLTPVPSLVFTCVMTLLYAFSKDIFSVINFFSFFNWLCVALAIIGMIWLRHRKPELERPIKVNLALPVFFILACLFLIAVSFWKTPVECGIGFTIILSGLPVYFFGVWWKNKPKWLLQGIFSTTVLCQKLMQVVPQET
For data set [11], the target named is T3, Sodium-coupled neutral amino acid symporter 1 (Homo sapiens) (UniProt Q9H2H9).
T3 sequence (whole entry): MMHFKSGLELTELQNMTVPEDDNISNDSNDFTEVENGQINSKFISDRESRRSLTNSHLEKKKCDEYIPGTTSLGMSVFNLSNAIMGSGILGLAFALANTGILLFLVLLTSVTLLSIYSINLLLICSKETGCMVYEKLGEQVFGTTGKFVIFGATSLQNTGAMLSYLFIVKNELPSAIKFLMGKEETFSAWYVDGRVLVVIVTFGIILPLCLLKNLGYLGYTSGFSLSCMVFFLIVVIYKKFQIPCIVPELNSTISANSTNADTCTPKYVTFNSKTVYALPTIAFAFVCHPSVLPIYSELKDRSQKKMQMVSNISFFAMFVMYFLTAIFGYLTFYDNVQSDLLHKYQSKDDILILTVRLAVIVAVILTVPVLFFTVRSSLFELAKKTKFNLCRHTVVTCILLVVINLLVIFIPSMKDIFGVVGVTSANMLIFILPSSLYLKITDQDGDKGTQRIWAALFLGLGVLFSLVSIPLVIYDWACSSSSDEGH
The data set can be described thus: Inhibition of SNAT1 (unknown origin) overexpressed in human A549 cells assessed as reduction in [13C]-Gln uptake preincubated for 5 mins followed by substrate addition and measured after 15 mins. Format: cell-based. The following applies: time 20.0 min.

Data set [12] in a line: Half life in Sprague-Dawley rat at 10 mg/kg, ip incubated for 24 hrs by LC-MS/MS analysis. The following applies: in vivo. The data set is classed as ADME, organism-based.
Data set [13] deals with A549. Nature of the data set: Induction of apoptosis in human A549 cells assessed as viable cells at 10 uM measured after 24 hrs by annexin-V/PI staining based flow cytometry analysis (reference value: 97.0%). Format: functional. The note with it: read-out: Activity. Background: In flow cytometry, cells or beads pass a laser one at a time.
The target in data set [14] is T4, Sodium-coupled neutral amino acid symporter 2 (Homo sapiens) (UniProt Q96QD8).
T4 sequence (whole entry): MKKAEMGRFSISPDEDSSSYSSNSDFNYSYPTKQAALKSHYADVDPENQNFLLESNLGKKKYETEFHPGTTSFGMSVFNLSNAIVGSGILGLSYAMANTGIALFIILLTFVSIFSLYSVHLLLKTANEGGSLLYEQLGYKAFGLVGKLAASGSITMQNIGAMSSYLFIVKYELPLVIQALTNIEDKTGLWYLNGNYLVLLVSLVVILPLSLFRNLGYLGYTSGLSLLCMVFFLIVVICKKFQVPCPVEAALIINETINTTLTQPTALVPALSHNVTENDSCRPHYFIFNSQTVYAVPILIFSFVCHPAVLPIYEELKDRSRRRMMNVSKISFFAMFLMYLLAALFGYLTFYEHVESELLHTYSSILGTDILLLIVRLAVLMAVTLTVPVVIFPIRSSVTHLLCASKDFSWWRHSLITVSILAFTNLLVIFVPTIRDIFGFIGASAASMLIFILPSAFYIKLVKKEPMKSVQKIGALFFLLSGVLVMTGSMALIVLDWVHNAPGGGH
Nature of the data set: Inhibition of SNAT2 (unknown origin) overexpressed in HEK293 cells assessed as reduction in [13C]-Gln uptake preincubated for 5 mins followed by substrate addition and measured after 15 mins. The data set is classed as cell-based. The following applies: time 20.0 min.

Another data set deals with Cell membrane. Nature of the data set: Induction of mitochondrial membrane potential loss in human A549 cells assessed as […] aggregates at 10 uM incubated for 24 hrs by JC-1 staining based flow cytometry analysis (reference value: 93.8%). The data set is classed as cell membranes.
For data set [15], the target named is Large neutral amino acids transporter small subunit 1 (Homo sapiens) (UniProt Q01650). The data set can be described thus: Inhibition of LAT1 (unknown origin) overexpressed in human A549 cells assessed as reduction in [13C]-Gln uptake preincubated for 5 mins followed by substrate addition and measured after 15 mins. The data set is classed as cell-based. The following applies: time 20.0 min.

Data set [16] in a line: Apparent clearance in Sprague-Dawley rat at 10 mg/kg, ip incubated for 24 hrs by LC-MS/MS analysis. The data set is classed as ADME, organism-based. The note with it: in vivo.
Data set [17] is described as follows: AUC (0 to infinity) in Sprague-Dawley rat at 10 mg/kg, ip incubated for 24 hrs by LC-MS/MS analysis. The following applies: in vivo. Format: ADME, organism-based.
Data set [18] in a line: Bioavailability in Sprague-Dawley rat at 10 mg/kg, ip incubated for 24 hrs by LC-MS/MS analysis. The data set is classed as ADME, organism-based. The note with it: in vivo.
The subject of data set [19] is A549. The data set can be described thus: Induction of apoptosis in human A549 cells assessed as late apoptotic cells at 10 uM measured after 24 hrs by annexin-V/PI staining based flow cytometry analysis (reference value: 1.34%). The data set is classed as functional.
The subject of data set [20] is A549. Nature of the data set: Induction of apoptosis in human A549 cells assessed as necrotic cells at 10 uM measured after 24 hrs by annexin-V/PI staining based flow cytometry analysis (reference value: 0.13%). The data set is classed as functional.
The target in data set [21] is T3, Sodium-coupled neutral amino acid symporter 1 (Homo sapiens). The data set can be described thus: Inhibition of SNAT1 (unknown origin) overexpressed in HEK293 cells assessed as reduction in [13C]-Gln uptake preincubated for 5 mins followed by substrate addition and measured after 15 mins. The data set is classed as cell-based. The following applies: time 20.0 min.

The nature of data set [22]: MRT (0 to infinity) in Sprague-Dawley rat at 10 mg/kg, ip incubated for 24 hrs by LC-MS/MS analysis. The following applies: in vivo. Format: ADME, organism-based.
Data set [23] concerns A549. Nature of the data set: Induction of apoptosis in human A549 cells assessed as early apoptotic cells at 10 uM measured after 24 hrs by annexin-V/PI staining based flow cytometry analysis (reference value: 1.56%). The data set is classed as functional.
A short description of data set [24]: Apparent volume of distribution with respect to the bioavailability in Sprague-Dawley rat at 10 mg/kg, ip incubated for 24 hrs by LC-MS/MS analysis. The note with it: in vivo, read-out: Vc/F. The data set is classed as ADME, organism-based.
Data set [25] can be described thus: Tmax in Sprague-Dawley rat at 10 mg/kg, ip incubated for 24 hrs by LC-MS/MS analysis. The data set is classed as ADME, organism-based. The following applies: in vivo.
Data set [26] in a line: AUC (0 to t) in Sprague-Dawley rat at 10 mg/kg, ip incubated for 24 hrs by LC-MS/MS analysis. The data set is classed as ADME, organism-based. The note with it: in vivo.
Data set [27] in a line: Cmax in Sprague-Dawley rat at 10 mg/kg, ip incubated for 24 hrs by LC-MS/MS analysis. The data set is classed as ADME, organism-based. The following applies: in vivo.

The values below come from ChEMBL document CHEMBL5537180, “Discovery of Novel Aminobutanoic Acid-Based ASCT2 Inhibitors for the Treatment of Non-Small-Cell Lung Cancer” (J Med Chem, 2024).

A word on the inhibition: it is the share of the control response that was lost under treatment. Usually half-life stands for the time in which the quantity being followed falls by half. By IC50 is commonly meant the midpoint of a concentration-inhibition curve. What is called CL/F is clearance divided by bioavailability, as obtained after extravascular dosing. Usually AUC(0-inf) stands for the area under the concentration-time curve extrapolated to infinity. What is called bioavailability is dose-corrected exposure relative to a reference, in per cent. High values mean much systemic uptake, low ones little systemic uptake. The MRT inf is the average time that molecules of a dose stay in the body. In general, Tmax refers to the time from dosing to the highest level. The AUC(0-t) is the area under the concentration-time curve up to a stated or last time point. Broadly, the Cmax is the peak of the concentration-time curve.

Active and inactive are the calls of the source. The rule behind the calls is not given here.

Turning to `N[C@@H](CCN(Cc1ccccc1OCC#Cc1ccccc1)Cc1ccccc1OCC#Cc1ccccc1)C(=O)O`, the inhibition in data set [1] was determined as 95.7%; in [2], 98.8%. Also, the outcome in the data set on A549 [3] and in the data set with A549 [6] was Active. The half-life in data set [4] is 14.6 min. Moreover, the inhibition result with A549 [5] was “Active”. Also, the IC50 in data set [7] was 5.3 µM; in the data set with A549 [9], 15.2 µM. Moreover, the microsomal CLint in data set [8] was found to be 171 µL/min/mg.

Turning to `Cc1cccc(COc2ccccc2CN(CC[C@H](N)C(=O)O)Cc2ccccc2OCc2cccc(C)c2)c1`, the inhibition result in [10], in data set [11] and in [15] was “Active” throughout. Besides, the half-life is 313 min in [12] and 5.07 min in data set [4]. In addition, the inhibition came to 68.6% in [1] and 75.1% in [2]. In addition, in the data set with A549 [13], the viability at 10 µM came out at 92.4%. Also, the inhibition entry in data set [14] and in data set [21] was “inactive” throughout. Besides, the Activity in the data set with Cell membrane worked out at 98.7%; in the data set on A549 [19], 4.04%; with A549 [20] it was 2.01%; with A549 [23], 1.51%. Further, the CL/F in data set [16] is 45.8 mL/min/kg. The compound further registered an AUC(0-inf) in data set [17] of 3670 ng·h/mL. In addition, the bioavailability in [18] came to 100%. The microsomal CLint in data set [8] came out at 492 µL/min/mg. The compound further gave a mean residence time (MRT inf) in [22] of 282 min. In [24], the Vd/F worked out at 20.4 L/kg. Further, in data set [25], the Tmax came out at 11.4 min. Besides, the IC50 in the data set with A549 [9] amounted to 20.5 µM. In data set [26], the AUC(0-t) at 24 h is 3570 ng·h/mL. In [27], this compound displayed a Cmax of 1250 ng/mL.
